Measurements: patent US20210369724A1, “COMBINATION OF ATR KINASE INHIBITORS WITH 2,3-DIHYDROIMIDAZO[1,2-C]QUINAZOLINE COMPOUNDS” (Bayer Aktiengesellschaft, priority 2018, published 2021)
Read-outs that look alike come from different tables or passages of the source. Marks after values point to notes of the source that are not given here.

Columns and labels:
MDA-MB-468 = test: Proliferation assay, mono and fixed-ratio combinations (Cell Titre-Glo, 96 h); assay type: cell-based, human; conditions: MDA-MB-468, single compound, 96 hour exposure
Description: (§3) Tumor cells were propagated in a humidified 37° C. incubator in their respective growth medium supplemented 10% fetal calf serum. […] Cell viability was assessed after 96 hour exposure with the Cell Titre-Glo Luminescent Cell Viability Assay (Promega).

VCaP = test: Proliferation assay of prostate cancer cell lines with R1881 (Cell Titre-Glo, 144 h); assay type: cell-based, human; conditions: 0.1 nM R1881, 144 hour exposure, single compound
Description: (§4) Tumor cells were propagated in a humidified 37° C. incubator in their respective growth medium supplemented with 10% fetal calf serum. […] Cell viability was assessed after 144 hour exposure, except for PC-3 cells where measurement took place after 96 hour exposure, with the Cell Titre-Glo Luminescent Cell Viability Assay (Promega).

22Rv1 = test: as above; assay type: cell-based, human; conditions: 22Rv1, 0.1 nM R1881, 144 hour exposure, single compound
Description: as §4

[1] = tested on: Ri-1 B cell lymphoma xenograft; test: Human Ri-1 B cell lymphoma xenograft model; assay type: in vivo, female NOD/SCID mice
Description: (§5) The oral application volume was 10 ml/kg and the intravenous application volume 5 ml/kg. The time interval between two applications per day was 6-7 h. […] The tumor size and the body weight were determined three times weekly. Changes in the body weight compared to the initial body weight at the start of treatment were a measure of treatment-related toxicity (>10%=critical, stoppage in treatment until recovery, >20%=toxic, termination). The tumor area was detected by means of an electronic caliper gauge [length (mm)×width (mm)]. In vivo anti-tumor efficacy is presented as T/C ratio (Treatment/Control) calculated with tumor areas at day of termination of control group by the formula [(tumor area of treatment group at day x)−(tumor area of treatment group at day before first treatment)]/[(tumor area control group at day x)−(tumor area of control group at day before first treatment)]. […] A one-way analysis of variance was performed and differences to the control were compared by a pair-wise comparison procedure (Dunn's method).

NCI-H460 = test: Proliferation assay of cell lines treated with Compound A, Compound B and fixed-ratio combinations (Cell Titre-Glo, 96 h); assay type: cell-based, human; conditions: NCI-H460, single compound, 96 hour exposure
Description: (§6) Tumor cells were propagated in a humidified 37° C. incubator in their respective growth medium supplemented 10% fetal calf serum. […] Cell viability was assessed after 96 hour exposure with the Cell Titre-Glo Luminescent Cell Viability Assay (Promega). […] IC50 isobolograms were plotted with the actual concentrations of the two compounds on the x- and y-axis, and the combination index (CI) was calculated according to the median-effect model of Chou-Talalay [Chou T. C.

IGR-OV1 = test: Proliferation assay, mono and fixed-ratio combinations (Cell Titre-Glo, 96 h); assay type: cell-based, human; conditions: IGR-OV1, single compound, 96 hour exposure
Description: as §6

OVCAR-3 = test: 72-hour growth assay of ovary cancer cell lines (Cell Titre-Glo); assay type: cell-based, human; conditions: OVCAR-3, single compound, 72 hour exposure
Description: (§7) The effects of combinations of the present invention were evaluated using combination index isobologram analysis for in vitro assessment. The efficacy parameters were the effects in a 72-hour growth assay. Tumor cells were propagated in a humidified 37° C. incubator in their respective growth medium (RPMI) supplemented with 10% fetal calf serum. […] Cell viability was assessed after 72 hour exposure with the Cell Titre-Glo Luminescent Cell Viability Assay (Promega). […] IC50 isobolograms were plotted with the actual concentrations of the two compounds on the x- and y-axis, and the combination index (CI) was calculated according to the median-effect model of Chou-Talalay [Chou T. C.

SK-OV-3 = test: Proliferation assay, mono and fixed-ratio combinations (Cell Titre-Glo, 96 h); assay type: cell-based, human; conditions: SK-OV-3, single compound, 96 hour exposure
Description: as §6

LNCaP = test: Proliferation assay of prostate cancer cell lines with R1881 (Cell Titre-Glo, 144 h); assay type: cell-based, human; conditions: 0.3 nM R1881, 144 hour exposure, single compound
Description: as §4

SUM-149 = test: Proliferation assay, mono and fixed-ratio combinations (Cell Titre-Glo, 96 h); assay type: cell-based, human; conditions: SUM-149, single compound, 96 hour exposure
Description: as §3

[2] = tested on: small cell lung cancer cell line NCI-H1048; test: Full matrix combination, 72-hour proliferation assay (CellTiter-Glo); assay type: cell-based
Description: (§1) Percentage of control (DMSO) in tumor cell growth assay in vitro is used for the assessment of combination effects.
(§2) The efficacy parameters were the effects in a 72-hour assay. Tumor cells were cultured in 37° C. incubator in their respective growth medium and serum according to the protocol from providers. […] Cell viability was assessed after 72 hour exposure with the Cell Titre-Glo Luminescent Cell Viability Assay (Promega).

[3] = tested on: ovarian cancer cell lines SK-OV-3; test: as above; assay type: cell-based; conditions: SK-OV-3, single agent Compound A
Description: as §1, §2

[4] = tested on: pancreatic cancer cell line Capan-1; test: as above; assay type: cell-based; conditions: Capan-1, single agent
Description: as §1, §2

[5] = tested on: SUM-149 breast cancer xenograft; test: Human SUM-149 breast cancer xenograft model; assay type: in vivo, female NMRI nude mice
Description: as §5

PC-3 = test: Proliferation assay of prostate cancer cell lines with R1881 (Cell Titre-Glo, 96 h); assay type: cell-based, human; conditions: PC-3, 0.1 nM R1881, 96 hour exposure, single compound
Description: as §4

SNU-449 = test: Proliferation assay, mono and fixed-ratio combinations (Cell Titre-Glo, 96 h); assay type: cell-based, human; conditions: SNU-449, single compound, 96 hour exposure
Description: as §3

IGR-OV1 cancer xenograft = test: Human IGR-OV1 endometrial cancer xenograft model; assay type: in vivo, female NMRI nude mice; conditions: IGR-OV1, day 55 after tumor inoculation
Description: as §5

[6] = tested on: IGR-OV1 endometrial cancer xenograft; test: Human IGR-OV1 endometrial cancer xenograft model; assay type: in vivo, female NMRI nude mice; conditions: IGR-OV1; 10 mg/kg, i.v., once daily, 2 days on/5 days off, days 1, 2 each week
Description: as §5

Huh-7 = test: Proliferation assay, mono and fixed-ratio combinations (Cell Titre-Glo, 96 h); assay type: cell-based, human; conditions: Huh-7, single compound, 96 hour exposure
Description: as §6

HCT 116 = test: as above; assay type: cell-based, human; conditions: HCT 116, single compound, 96 hour exposure
Description: as §6

[7] = tested on: 22Rv1 prostate cancer xenograft; test: Human 22Rv1 prostate cancer xenograft model; assay type: in vivo, male Fox Chase SCID mice
Description: as §5

PLC/PRF/5 = test: Proliferation assay, mono and fixed-ratio combinations (Cell Titre-Glo, 96 h); assay type: cell-based, human; conditions: PLC/PRF/5, single compound, 96 hour exposure
Description: as §3

C4-2B = test: Proliferation assay of prostate cancer cell lines with R1881 (Cell Titre-Glo, 144 h); assay type: cell-based, human; conditions: 0.3 nM R1881, 144 hour exposure, single compound
Description: as §4

A2780 = test: 72-hour growth assay of ovary cancer cell lines (Cell Titre-Glo); assay type: cell-based, human; conditions: A2780, single compound, 72 hour exposure
Description: as §7

[8] = Ri-1, 10 mg/kg, i.v., once daily, 2 days on/5 days off, days 1, 2 each week
[9] = SUM-149, 10 mg/kg, i.v., once daily, 2 days on/5 days off, days 1, 2 each week

## COc1c(OCCCN2CCOCC2)ccc2c1N=C(NC(=O)c1cnc(N)nc1)N1CCN=C21.Cl.Cl [Compound A, 2-amino-N-[7-methoxy-8-(3-morpholin-4-ylpropoxy)-2,3-dihydroimid-azo[1,2-c]quinazolin-5-yl]pyrimidine-5-carboxamide dihydrochloride]
MDA-MB-468
  IC50: 280 nM
VCaP
  IC50: 13 nM
22Rv1
  IC50: 50 nM
[1]; Ri-1, day 38 after tumor inoculation
  Anti-tumor efficacy of monotherapy compared to control: good and statistically significant improved anti-tumor efficacy
[1]; [8]
  Max. weight loss (%): −11%
  T/C: 0.09*
NCI-H460
  IC50: 63 nM
IGR-OV1
  IC50: 19 nM
OVCAR-3
  IC50: 120 nM
SK-OV-3
  IC50: 82 nM
LNCaP
  IC50: 8 nM
SUM-149
  IC50: 10 nM
[2]; NCI-H1048, single agent Compound A, 72-hour proliferation assay
  Concentration at which treatment led to tumor killing: 0.025 µM
[3]
  Concentration at which single agent showed anti-proliferative effects: 0.025 µM
[4]
  Concentration at which single agent led to moderate anti-proliferation effects: 0.025 µM
[5]; SUM-149, day 49 after tumor inoculation
  Anti-tumor efficacy of monotherapy compared to control: weak to moderate and statistically significant improved anti-tumor efficacy
[5]; [9]
  Max. weight loss (%): −10%
  T/C: 0.58*
PC-3
  IC50: 100 nM
SNU-449
  IC50: 100 nM
IGR-OV1 cancer xenograft
  Anti-tumor efficacy of monotherapy compared to control: good to moderate and statistically significant improved anti-tumor efficacy
[6]
  Max. weight loss (%): −6%
  T/C: 0.32*
Huh-7
  IC50: 21 nM
HCT 116
  IC50: 95 nM
[7]; 22Rv1, at the day of control group termination
  Anti-tumor efficacy of monotherapy compared to control: weak to moderate and statistically significant improved anti-tumor efficacy
[7]; 22Rv1, 14 mg/kg, i.v., once daily, 2 days on/5 days off, days 1, 2 each week
  Max. weight loss (%): −8%
[7]; 22Rv1, 14 mg/kg, i.v., once daily, 2 days on/5 days off, days 1, 2 each week, tumor area at termination of control group
  T/C: 0.51*
PLC/PRF/5
  IC50: 180 nM
C4-2B
  IC50: 92 nM
A2780
  IC50: 37.4 nM

## C[C@@H]1COCCN1c1cc(-c2ccnn2C)c2ccnc(-c3ccn[nH]3)c2n1 [Compound B, 2-[(3R)-3-methylmorpholin-4-yl]-4-(1-methyl-1H-pyrazol-5-yl)-8-(1H-pyrazol-5-yl)-1,7-naphthyridine]
[2]
  Concentration at which treatment led to tumor killing: 0.253 µM
